Data as given in patent US20230047788A1, “COMPOSITIONS COMPRISING 5-CHOLESTEN-3, 25-DIOL, 3-SULFATE (25HC3S) OR PHARMACEUTICALLY ACCEPTABLE SALT THEREOF AND AT LEAST ONE CYCLIC OLIGOSACCHARIDE” (Virginia Commonwealth University, priority 2016, published 2023).

How the values were obtained:
[1] = Solubility of 25HC3S in 10 mM sodium phosphate buffer pH 7.6 with HPbCD at 5, 15 and 25°C; type: physicochemical
Method: A total of five suspensions of 25HC3S were prepared in 10 mM sodium phosphate buffer at pH 7.6 containing 0, 50, 100, 250 and 400 mg/mL HPbCD. The suspensions were initially sonicated and then stirred. Each suspension (40 mL for the suspension without HPbCD and 20 mL for the remaining suspensions) was then equally divided into 3 vials and stored in 5° C., 15° C. and 25° C./60% relative humidity (RH) stability chambers.
Each suspension was stirred constantly in the stability chambers by a small spin bar and electronic stirrer. At day 1 and day 3, half of each suspension (approximately 6 mL for the sample without HPbCD and 3 mL for the rest of the suspensions with HPbCD) was withdrawn from the vial with a 3 or 5 mL disposable syringe. A syringe filter was then attached to the syringe for filtration of the suspensions. To minimize sample temperature changes during filtration, the syringe and filter were equilibrated at the respective stability chamber temperatures before their use. Approximately 3 mL of the filtrate for the sample without HPbCD and 1 mL of the filtrate for the remaining suspensions in HPbCD were discarded to ensure that the filter membrane was sufficiently saturated with 25HC3S to prevent absorption of the drug from the remaining filtrate. Then approximately 0.5 mL to 1.5 mL of filtrate was collected for HPLC analysis. At day 3, the remaining filtered portions were measured for pH. Reverse phase HPLC was used for measuring the concentration of 25HC3S in the solubility samples.

[2] = Stability testing for 25HC3S sodium salt for injection, 30 mg/mL after constitution; type: physicochemical; settings: for Degree of Coloration of Liquids: BY = brown-yellow
Method: Sterile water for injection, USP (6.14 kg) was added into a 10L stainless steel vessel. […] HPbCD, NF (1851.85 g) was added in small portions over 15 minutes with slow stirring into the beaker. The stirring was increased to 250-350 rpm for an additional minimum 30 minutes to form a clear solution. The solution was filtered through a 0.22 micron filter. Filtered vehicle (7 mL) was filled into 10 mL glass vials, which were sealed with 20 mm stoppers, and crimp sealed. The vehicle vials were sterilized with gamma irradiation at approximately 28-32 kGy.
25HC3S sodium salt was micronized by passing through a Fluid Energy Model 00 Jet-O-Mizer Jet Mill. Micronized drug substance (186 mg) was added into a 10 mL glass vial, sealed with 20 mm stoppers, and crimp sealed. The 25HC3S powder vials were sterilized with gamma irradiation at approximately 28-32 kGy
Sterile vehicle (6.0 mL) comprised of 250 mg/mL HPbCD and 10 mM phosphate buffer was added to a vial of 25HC3S micronized powder. The mixture was shaken for 15 minutes to prepare a solution resulting in a 25HC3S sodium salt concentration of 30 mg/mL (allowing for 3% dilution upon the dissolution of drug).
Stability data for 6 months at 2-8° C. to 40° C./75% RH for 25HC3S for injection, 30 mg/mL after constitution, are listed in Table 5. This lot of 25HC3S powder, and the vehicle used to constitute it, were gamma sterilized at approximately 28-32 kGy. The data supports a 12 month retest date when stored at 2-8° C.

C[C@H](CCCC(C)(C)O)[C@H]1CC[C@H]2[C@@H]3CC=C4C[C@@H](OS(=O)(=O)[O-])CC[C@]4(C)[C@H]3CC[C@]12C.[Na+] [25HC3S, 5-cholesten-3, 25-diol, 3-sulfate]
pH of Filtrate Day 3 ([1]; 5°C, HPbCD 0 mg/mL): 7.62
pH of Filtrate Day 3 ([1]; 5°C, HPbCD 50 mg/mL): 7.70
Solubility at Day 3 ([1]; 5°C, HPbCD 50 mg/mL, phosphate buffer pH 7.6): 9.32 mg/mL
pH of Filtrate Day 3 ([1]; 5°C, HPbCD 100 mg/mL): 7.80
Solubility at Day 3 ([1]; 5°C, HPbCD 100 mg/mL, phosphate buffer pH 7.6): 18.31 mg/mL
pH of Filtrate Day 3 ([1]; 5°C, HPbCD 250 mg/mL): 8.06
Solubility at Day 3 ([1]; 5°C, HPbCD 250 mg/mL, phosphate buffer pH 7.6): 42.80 mg/mL
pH of Filtrate Day 3 ([1]; 5°C, HPbCD 400 mg/mL): 8.42
Solubility at Day 3 ([1]; 5°C, HPbCD 400 mg/mL, phosphate buffer pH 7.6): 66.89 mg/mL
pH of Filtrate Day 3 ([1]; 15°C, HPbCD 0 mg/mL): 7.59
pH of Filtrate Day 3 ([1]; 15°C, HPbCD 50 mg/mL): 7.77
Solubility at Day 3 ([1]; 15°C, HPbCD 50 mg/mL, phosphate buffer pH 7.6): 9.50 mg/mL
pH of Filtrate Day 3 ([1]; 15°C, HPbCD 100 mg/mL): 7.98
Solubility at Day 3 ([1]; 15°C, HPbCD 100 mg/mL, phosphate buffer pH 7.6): 18.51 mg/mL
pH of Filtrate Day 3 ([1]; 15°C, HPbCD 250 mg/mL): 8.07
Solubility at Day 3 ([1]; 15°C, HPbCD 250 mg/mL, phosphate buffer pH 7.6): 43.79 mg/mL
pH of Filtrate Day 3 ([1]; 15°C, HPbCD 400 mg/mL): 8.26
Solubility at Day 3 ([1]; 15°C, HPbCD 400 mg/mL, phosphate buffer pH 7.6): 68.10 mg/mL
Solubility at Day 3 ([1]; 25°C/60% RH, HPbCD 0 mg/mL, phosphate buffer pH 7.6, centrifuged sample): 0.006^1 mg/mL
pH of Filtrate Day 3 ([1]; 25°C/60% RH, HPbCD 50 mg/mL): 7.65
Solubility at Day 3 ([1]; 25°C/60% RH, HPbCD 50 mg/mL, phosphate buffer pH 7.6): 9.90 mg/mL
Solubility at Day 3 ([1]; 25°C/60% RH, HPbCD 100 mg/mL, phosphate buffer pH 7.6): 18.33 mg/mL
pH of Filtrate Day 3 ([1]; 25°C/60% RH, HPbCD 100 mg/mL, supernatant): 7.672
Solubility at Day 3 ([1]; 25°C/60% RH, HPbCD 250 mg/mL, phosphate buffer pH 7.6): 42.37 mg/mL
Solubility at Day 3 ([1]; 25°C/60% RH, HPbCD 400 mg/mL, phosphate buffer pH 7.6): 70.80 mg/mL
pH of Filtrate Day 3 ([1]; 25°C/60% RH, HPbCD 400 mg/mL, supernatant): 8.342
temperature dependence of solubility in the presence of HPbCD ([1]; between 5°C and 25°C): not temperature dependent
% Individual Unspecified Degradant RRT = 0.60 ([2]; 2-8°C, 0 months): 0.2%
% Individual Unspecified Degradant RRT = 0.64 ([2]; 2-8°C, 0 months): 0.4%
% Individual Unspecified Degradant RRT = 2.74 ([2]; 2-8°C, 0 months): 0.4%
% Individual Unspecified Degradant RRT = 3.77 ([2]; 2-8°C, 0 months): 0.3%
% Total Degradation Products ([2]; 2-8°C, 0 months): 2.5%
% Water Content ([2]; 2-8°C, 0 months): 6.23%
Appearance ([2]; 2-8°C, 0 months): White powder
Assay (label strength of 30 mg/mL) ([2]; 2-8°C, 0 months): Mean: 98.7%
Osmolality ([2]; 2-8°C, 0 months): 321 mmol/kg
pH ([2]; 2-8°C, 0 months): 6.62
Degree of Coloration of Liquids ([2]; 2-8°C, 0 months): BY6
% Individual Unspecified Degradant RRT = 0.60 ([2]; 2-8°C, 3 months): 0.2%
% Individual Unspecified Degradant RRT = 0.64 ([2]; 2-8°C, 3 months): 0.4%
% Individual Unspecified Degradant RRT = 2.74 ([2]; 2-8°C, 3 months): 0.4%
% Individual Unspecified Degradant RRT = 3.77 ([2]; 2-8°C, 3 months): 0.3%
% Total Degradation Products ([2]; 2-8°C, 3 months): 2.8%
% Water Content ([2]; 2-8°C, 3 months): 5.62%
Assay (label strength of 30 mg/mL) ([2]; 2-8°C, 3 months): 96.7%
Osmolality ([2]; 2-8°C, 3 months): 322 mmol/kg
pH ([2]; 2-8°C, 3 months): 5.82
% Individual Unspecified Degradant RRT = 0.60 ([2]; 2-8°C, 6 months): 0.3%
% Individual Unspecified Degradant RRT = 0.64 ([2]; 2-8°C, 6 months): 0.4%
% Individual Unspecified Degradant RRT = 2.74 ([2]; 2-8°C, 6 months): 0.4%
% Individual Unspecified Degradant RRT = 3.77 ([2]; 2-8°C, 6 months): 0.3%
% Total Degradation Products ([2]; 2-8°C, 6 months): 3.0%
% Water Content ([2]; 2-8°C, 6 months): 6.13%
Assay (label strength of 30 mg/mL) ([2]; 2-8°C, 6 months): 100.0%
Osmolality ([2]; 2-8°C, 6 months): 323 mmol/kg
pH ([2]; 2-8°C, 6 months): 5.34
Degree of Coloration of Liquids ([2]; 2-8°C, 6 months): BY6
% Individual Unspecified Degradant RRT = 0.60 ([2]; 25°C/60% RH, 1 month): 0.3%
% Individual Unspecified Degradant RRT = 0.64 ([2]; 25°C/60% RH, 1 month): 0.4%
% Individual Unspecified Degradant RRT = 2.74 ([2]; 25°C/60% RH, 1 month): 0.4%
% Individual Unspecified Degradant RRT = 3.77 ([2]; 25°C/60% RH, 1 month): 0.3%
% Total Degradation Products ([2]; 25°C/60% RH, 1 month): 2.9%
% Water Content ([2]; 25°C/60% RH, 1 month): 5.29%
Assay (label strength of 30 mg/mL) ([2]; 25°C/60% RH, 1 month): 98.3%
Osmolality ([2]; 25°C/60% RH, 1 month): 330 mmol/kg
pH ([2]; 25°C/60% RH, 1 month): 5.18
% Individual Unspecified Degradant RRT = 0.60 ([2]; 25°C/60% RH, 3 months): 0.3%
% Individual Unspecified Degradant RRT = 0.64 ([2]; 25°C/60% RH, 3 months): 0.4%
% Individual Unspecified Degradant RRT = 2.74 ([2]; 25°C/60% RH, 3 months): 0.4%
% Individual Unspecified Degradant RRT = 3.77 ([2]; 25°C/60% RH, 3 months): 0.3%
% Total Degradation Products ([2]; 25°C/60% RH, 3 months): 2.9%
% Water Content ([2]; 25°C/60% RH, 3 months): 5.40%
Assay (label strength of 30 mg/mL) ([2]; 25°C/60% RH, 3 months): 96.0%
Osmolality ([2]; 25°C/60% RH, 3 months): 322 mmol/kg
Degree of Coloration of Liquids ([2]; 25°C/60% RH, 3 months): BY5
% Individual Unspecified Degradant RRT = 0.60 ([2]; 25°C/60% RH, 6 months): 0.4%
% Individual Unspecified Degradant RRT = 0.64 ([2]; 25°C/60% RH, 6 months): 0.4%
% Individual Unspecified Degradant RRT = 2.74 ([2]; 25°C/60% RH, 6 months): 0.4%
% Individual Unspecified Degradant RRT = 3.77 ([2]; 25°C/60% RH, 6 months): 0.3%
% Total Degradation Products ([2]; 25°C/60% RH, 6 months): 3.0%
% Water Content ([2]; 25°C/60% RH, 6 months): 5.65%
Assay (label strength of 30 mg/mL) ([2]; 25°C/60% RH, 6 months): 96.2%
Osmolality ([2]; 25°C/60% RH, 6 months): 319 mmol/kg
Degree of Coloration of Liquids ([2]; 25°C/60% RH, 6 months): BY5
% Individual Unspecified Degradant RRT = 0.60 ([2]; 40°C/75% RH, 1 month): 0.3%
% Individual Unspecified Degradant RRT = 0.64 ([2]; 40°C/75% RH, 1 month): 0.4%
% Individual Unspecified Degradant RRT = 2.74 ([2]; 40°C/75% RH, 1 month): 0.4%
% Individual Unspecified Degradant RRT = 3.77 ([2]; 40°C/75% RH, 1 month): 0.3%
% Total Degradation Products ([2]; 40°C/75% RH, 1 month): 2.9%
% Water Content ([2]; 40°C/75% RH, 1 month): 5.03%
Assay (label strength of 30 mg/mL) ([2]; 40°C/75% RH, 1 month): 95.8%
Osmolality ([2]; 40°C/75% RH, 1 month): 330 mmol/kg
% Individual Unspecified Degradant RRT = 0.60 ([2]; 40°C/75% RH, 3 months): 0.3%
% Individual Unspecified Degradant RRT = 0.64 ([2]; 40°C/75% RH, 3 months): 0.4%
% Individual Unspecified Degradant RRT = 2.74 ([2]; 40°C/75% RH, 3 months): 0.5%
% Individual Unspecified Degradant RRT = 3.77 ([2]; 40°C/75% RH, 3 months): 0.4%
% Total Degradation Products ([2]; 40°C/75% RH, 3 months): 3.3%
% Water Content ([2]; 40°C/75% RH, 3 months): 5.33%
Assay (label strength of 30 mg/mL) ([2]; 40°C/75% RH, 3 months): 96.2%
Osmolality ([2]; 40°C/75% RH, 3 months): 327 mmol/kg
% Individual Unspecified Degradant RRT = 0.60 ([2]; 40°C/75% RH, 6 months): 0.4%
% Individual Unspecified Degradant RRT = 0.64 ([2]; 40°C/75% RH, 6 months): 0.5%
% Individual Unspecified Degradant RRT = 2.74 ([2]; 40°C/75% RH, 6 months): 0.4%
% Individual Unspecified Degradant RRT = 3.77 ([2]; 40°C/75% RH, 6 months): 0.3%
% Total Degradation Products ([2]; 40°C/75% RH, 6 months): 2.8%
% Water Content ([2]; 40°C/75% RH, 6 months): 6.34%
Assay (label strength of 30 mg/mL) ([2]; 40°C/75% RH, 6 months): 97.1%
Osmolality ([2]; 40°C/75% RH, 6 months): 324 mmol/kg
retest date supported by the data ([2]; stored at 2-8°C): 12 month
